From the supplement of paper PMC4862054

Key:
[1] = test system: BT-474; conditions: 72 h
Method in brief: (§1)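 EC50 was fitted from dose-response curves and censored at the highest concentration tested. To build those curves, breast cancer cell lines (20 µl suspension) were seeded into 384-well plates containing compound at 5 concentrations in 10-fold steps over a compound-specific 10,000-fold range and incubated for 72 h. Readouts were CellTox Green fluorescence (485/520 nm) for cell death and then CellTiter-Glo luminescence for viability, with each plate normalised to 0.1 % DMSO and a positive kill control.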

[2] = test system: BT-549; conditions: 72 h
Method in brief: as §1

[3] = test system: CAL-120; conditions: 72 h
Method in brief: as §1

[4] = test system: CAL-51; conditions: 72 h
Method in brief: as §1

[5] = test system: CAL-85-1; conditions: 72 h
Method in brief: as §1

[6] = test system: HCC1937; conditions: 72 h
Method in brief: as §1

[7] = test system: Hs578T; conditions: 72 h
Method in brief: as §1

[8] = test system: MCF-10A; conditions: 72 h
Method in brief: as §1

[9] = test system: MDA-MB-231; conditions: 72 h
Method in brief: as §1

[10] = test system: MDA-MB-436; conditions: 72 h
Method in brief: as §1

[11] = test system: MDA-MB-453; conditions: 72 h
Method in brief: as §1

[12] = test system: MDA-MB-468; conditions: 72 h
Method in brief: as §1

[13] = test system: SK-BR-3; conditions: 72 h
Method in brief: as §1

[14] = test system: CAL-148; experiment: normalised viability (% of control), CellTiter-Blue; higher = more viable cells (about 100 = DMSO control); conditions: 3000 nM; incubation time: 72 h
Description: (§2)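 DSRT, CellTiter-Blue viability, 72 h incubation. Signal is normalised to DMSO and benzethonium chloride controls. Value is the normalised response at dose 8.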

[15] = test system: CAL-51; experiment: as above; conditions: 3000 nM; incubation time: 72 h
Description: as §2

[16] = test system: CAL-85-1; experiment: as above; conditions: 3000 nM; incubation time: 72 h
Description: as §2

[17] = test system: DU-4475; experiment: as above; conditions: 3000 nM; incubation time: 72 h
Description: as §2

[18] = test system: HDQ-P1; experiment: as above; conditions: 3000 nM; incubation time: 72 h
Description: as §2

[19] = test system: MDA-MB-453; experiment: as above; conditions: 3000 nM; incubation time: 72 h
Description: as §2

[20] = test system: CAL-148; experiment: as above; conditions: 1000 nM; incubation time: 72 h
Description: (§3)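 DSRT, CellTiter-Blue viability, 72 h incubation. Signal is normalised to DMSO and benzethonium chloride controls. Value is the normalised response at dose 7.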

[21] = test system: CAL-51; experiment: as above; conditions: 1000 nM; incubation time: 72 h
Description: as §3

[22] = test system: CAL-85-1; experiment: as above; conditions: 1000 nM; incubation time: 72 h
Description: as §3

[23] = test system: DU-4475; experiment: as above; conditions: 1000 nM; incubation time: 72 h
Description: as §3

[24] = test system: HDQ-P1; experiment: as above; conditions: 1000 nM; incubation time: 72 h
Description: as §3

[25] = test system: MDA-MB-453; experiment: as above; conditions: 1000 nM; incubation time: 72 h
Description: as §3

[26] = test system: BT-549; experiment: normalised viability (% of control), CellTiter-Blue; higher = more viable cells (100 = DMSO, 0 = benzethonium chloride kill control); conditions: 1 nM; incubation time: 72 h
Description: (§4)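 DSRT, CellTiter-Blue viability, 72 h incubation. Signal is normalised to DMSO and benzethonium chloride controls. Value is the normalised response at dose 1.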

[27] = test system: CAL-120; experiment: as above; conditions: 1 nM; incubation time: 72 h
Description: as §4

[28] = test system: CAL-51; experiment: as above; conditions: 1 nM; incubation time: 72 h
Description: as §4

[29] = test system: DU-4475; experiment: as above; conditions: 1 nM; incubation time: 72 h
Description: as §4

[30] = test system: HCC1599; experiment: as above; conditions: 1 nM; incubation time: 72 h
Description: as §4

[31] = test system: HCC1937; experiment: as above; conditions: 1 nM; incubation time: 72 h
Description: as §4

[32] = test system: HDQ-P1; experiment: as above; conditions: 1 nM; incubation time: 72 h
Description: as §4

[33] = test system: Hs578T; experiment: as above; conditions: 1 nM; incubation time: 72 h
Description: as §4

[34] = test system: MDA-MB-468; experiment: as above; conditions: 1 nM; incubation time: 72 h
Description: as §4

[35] = test system: MFM-223; experiment: as above; conditions: 1 nM; incubation time: 72 h
Description: as §4

[36] = test system: SK-BR-3; experiment: as above; conditions: 1 nM; incubation time: 72 h
Description: as §4

| EC50, CellTiter-Glo [1] | EC50, CellTiter-Glo [2] | EC50, CellTiter-Glo [6] | EC50, CellTiter-Glo [9] | EC50, CellTiter-Glo [10] | EC50, CellTiter-Glo [11] | EC50, CellTiter-Glo [12] | EC50, CellTiter-Glo [13] | SMILES | EC50, CellTiter-Glo [3] | EC50, CellTiter-Glo [4] | EC50, CellTiter-Glo [5] | EC50, CellTiter-Glo [7] | EC50, CellTiter-Glo [8] | normalised viability [14] | normalised viability [15] | normalised viability [16] | normalised viability [17] | normalised viability [18] | normalised viability [19] | normalised viability [20] | normalised viability [21] | normalised viability [22] | normalised viability [23] | normalised viability [24] | normalised viability [25] | normalised viability [26] | normalised viability [27] | normalised viability [28] | normalised viability [29] | normalised viability [30] | normalised viability [31] | normalised viability [32] | normalised viability [33] | normalised viability [34] | normalised viability [35] | normalised viability [36] |
| --- | --- | --- | --- | --- | --- | --- | --- | --- | --- | --- | --- | --- | --- | --- | --- | --- | --- | --- | --- | --- | --- | --- | --- | --- | --- | --- | --- | --- | --- | --- | --- | --- | --- | --- | --- | --- |
| 121 nM | 30.8 nM | 100 nM | 73.8 nM | 11.6 nM | 24.6 nM | 43.3 nM | 7.23 nM | COc1ccc(-c2ccc3c(N4CCOC[C@@H]4C)nc(N4CCOC[C@@H]4C)nc3n2)cc1CO [AZD8055] | 37.5 nM | 45.4 nM | 31.8 nM | 57.5 nM | 61 nM | 5.57% | 10.5% | 18.6% | 14.1% | 21.8% | 14.6% | 5.6% | 10.8% | 23.8% | 15.2% | 27.2% | 14.4% | 106% | 93.2% | 94% | 103% | 97.8% | 102% | 104% | 105% | 109% | 93% | 103% |
| 1660 nM | 3270 nM | > 10000 nM | 2840 nM | 7370 nM |  | 7960 nM | 5430 nM | CN(C)CCN1C(=O)c2cccc3cc(N)cc(c23)C1=O [Amonafide] | 2700 nM | 5570 nM | 9240 nM | 1920 nM | 8420 nM | 32% | 55.7% | 61.9% | 57.9% | 79.6% | 68.3% | 74.5% | 99.1% | 84% | 86.8% | 93.8% | 81.7% | 94.4% | 78.7% | 107% | 99.6% | 88.2% | 108% | 105% | 121% | 110% | 93% | 101% |
